Like-named read-outs stand apart in the source and are kept apart here.
Key:
[1] = tested on: individuals with MCI or dementia; conditions: cited from earlier work; for effect in mild cognitive impairment (reports): individuals with MCI
[2] = tested on: adults with ADHD; conditions: for group outcome of combination therapy: adults with ADHD
Protocol: In the clinical setting a number of adults with ADHD experienced a combination therapy of stimulant medication (dexamphetamine) in combination with sodium valproate (VPA). The initial dosages used were from 15 to 70 mg/day of dexamphetamine and from 100 to 700 mg/day of VPA (Epilim) (=approximately 2 to 10 mg/kg/day).
The determination of the dose for the dexamphetamine was undertaken in a clinical sensitive open label manner. The dose was titrated upwards dependent on the clinical response and the freedom from side-effects. The dose range was between 15 and 70 mg a day. The frequency of the dosing also varied dependent upon the clinical response. The usual dose interval was between two to four hours. This dosing adjustment took place prior to the commencement of the sodium valproate. The sodium valproate medication was initiated once a day at 50 mg tablet or elixir and titrated upwards dependent on response, but not more than one increase every three days. The dose was given as a once or twice a day regime. During the titration phase, if clinically possible, no other adjustments to the pharmacotherapy were undertaken.

[3] = tested on: individuals with developmental dyspraxia / poor coordination; experiment: Treatment of developmental dyspraxia, clinical observation; type: in vivo, human; conditions: person, ADHD
From the text: Many of the individuals treated at this clinic, with a diagnosis of ADHD and/or pervasive development disorder such Asperger's Syndrome or autism also present with symptoms consistent with a diagnosis of a developmental coordination disorder. They are often described as ‘unco’ (unco-ordinated) by their peers and experience victimization, poor self-esteem and frustration as a consequence of their poor coordination. […] Individuals have described a sense of having more time to coordinate movements and to understand and integrate their own activity appropriately within a team sport such as soccer, which has previously eluded them. Individuals have felt frustration at being able to practise repeatedly an activity or skill only to be unable to put it into practice when required, within the play of a match. It is proposed that individuals were previously unable to process and plan their own coordination but remain aware of the general activity in which they were participating.

[4] = tested on: Parkinson's disease patient; experiment: Parkinson's disease clinical example with infrared eye tracking; type: in vivo, human; conditions: 12.5 mg phenytoin
From the text: Clinical example person with a ten-year history of Parkinson's disease. Moderate to severe motor symptoms with muscle rigidity, resting tremor, brady-[…] slowing of speech. No evidence of dementia or depression. […] An enhanced initiation of movement. Also described an improved perception of efficiency in thought and action. No evidence of loss of efficacy of medication. Using infrared eye tracking technology it was noted that the fixations and […] movements were enhanced after treatment. Measurements were undertaken both whilst silent and speaking with and without eye contact with the investigator. Based on these investigations in Parkinson's disease and also in mild cognitive impairment and dementia we consider that condition is described as Parkinson plus diseases, including multiple system atrophy (MSA), progressive supranuclear palsy (PSP), corticobasal degeneration (CBD), and dementia with Lewy bodies (DLB)s may also benefit from the addition of a low dose AED with and without a psychostimulant.

[5] = tested on: individuals with MCI or dementia; experiment: Mild cognitive impairment and dementia, clinical cases (Developmental Eye Movement test, Alzheimer's Quick Test); type: in vivo, human; conditions: person
From the text: A married person with a history of good cognitive functioning until last 4-5 yrs when noted by both their spouse and themself to becoming increasingly socially withdrawn primarily because of the difficulty in listening without distraction during social interaction, no known childhood or adult history of prior attentional or impulsive disorders. It has been clinically observed by the inventor that individuals treated with low dose antiepileptic were enhanced in their ability to discriminate irrelevant from the relevant sound was enhanced. […] On ceasing the medication there was an initial improvement again over the preceding 3 to 7 days followed by a loss of the therapeutic effects and returned to their pre-medication function. On the ressumption of the 12.5 mg phenytoin there was a return of the improved function. On this second occasion they were more aware of the benefits and also the gradual return of the detrimental clinic effects. During the clinical assessment it was noted that they had more flexibility in their conversation and more natural use of non-verbal cues, there was also enhancement of their egocentric gaze. […] These benefits were also noted by their spouse. […] Again these medications were ceased resulting in a loss of associated benefits. With each trial of medication they became more apparent to the patient and their spouse of the benefits of the therapy. They attempted whilst not taking the medication to communicate and follow the conversation in a way that they had been able to whilst on treatment. They found when attempting to do so they became mentally exhausted and unable to sustain the effort required for the interaction. The improvements noted clinically and also recorded using the Developmental Eye Movement test and a measure of parietal function the Alzheimer's Quick Test. Married person diagnosed with fronto-temporal dementia. they had been assessed by neuropsychologist, and geriatrician and psychiatrist to confirm this diagnosis. […] They then relied on others to make decisions for […]. They had gradually become socially disengaged finding such interactions distressing and demanding. […] Despite ongoing difficulties of word finding they were able to socially interact more spontaneously than they had done for many years. And have confidence in areas of conversation that they previously would have avoided. […] On two occasions the medication was withdrawn and then reintroduced, due to the experimental nature of treatment and concern that there might be a significant placebo effect. […] Following the subsequent reduction there was a return of the improvement previously noted.

[6] = tested on: adherence to medication regime; conditions: person, anxiety and depression, no ADHD; 25 mg phenytoin
From the text: As a result, taking medication becomes an automatic activity which doesn't require a high level of attention and motivation.
The individual experiences an improvement in the ability to efficiently and effectively attend to a task in hand, without also needing to expend extra cognitive effort to remember which medication to take and at what times.

[7] = tested on: mood stabilisation or epileptic symptoms or events; conditions: cited from earlier work; for Minimum Dose/day effective for mood stabilisation or treatment of epileptic symptoms or events: usual minimum anti-convulsant dose per day
[8] = tested on: individual not meeting the full criteria for ADHD; experiment: Subthreshold ADHD, clinical case (Example 21); type: in vivo, human; conditions: person; topiramate 12.5 mg daily added to dexamphetamine 2.5 mg daily
[9] = tested on: patients with an eating disorder and ADHD; experiment: Treatment of eating disorders, clinical observation; conditions: person
From the text: The use of sodium valproate at low dose levels can then be titrated to a level that does effectively control these thoughts. This may or may not be at the therapeutic dose used in the treatment of bipolar disorder.

[10] = tested on: patients with substance addiction; experiment: Treatment of addictions, clinical observation; type: in vivo, human; conditions: person; dexamphetamine alone over 6 months
From the text: Addiction to amphetamines poses a number of unique challenges.

[11] = tested on: patients with substance addiction; conditions: psychostimulants alone; cited from earlier work
[12] = tested on: patients with an eating disorder and ADHD; conditions: double-blind studies; effects thought only short-lived; cited from earlier work
[13] = in vivo; cited from earlier work
[14] = fronto-temporal dementia, 25 mg phenytoin

## COc1cc2c(cc1OC)C(=O)C(CC1CCN(Cc3ccccc3)CC1)C2 (stereo not shown) [Donepezil]
[1]; human, in vivo
  side effects in MCI (reports): significant side effects
[1]
  effect in mild cognitive impairment (reports): only minor, short-term benefits

## O=C1NC(=O)C(c2ccccc2)(c2ccccc2)N1 [Phenytoin]
[2]; 50 mg phenytoin dose with dexamphetamine, many clinical situations
  course of benefit on continued dosing: loss of benefit of the therapy over the proceeding weeks and months
[2]; adult female, phenytoin 50 mg added to sodium valproate 100 mg and methylphenidate
  clinical outcome (case): Pervasive and robust psychosocial improvement
[2]; Methylphenidate 40 mg/d, Valproate 100 mg/d, Phenytoin 50 mg/d
  group outcome of combination therapy: successfully treated
[2]; dexamphetamine 20-45 mg/d, Valproate 100-400 mg/d, Phenytoin 12.5-50 mg/d
  group outcome of combination therapy: successfully treated
[2]; dexamphetamine 20-75 mg/d with Phenytoin 1-75 mg/d
  group outcome of combination therapy: successfully treated
[2]; methylphenidate 15-105 mg/d with Phenytoin 25-50 mg/d
  group outcome of combination therapy: successfully treated
[2]; person, ADHD, phenytoin 30 mg added to dexamphetamine
  clinical outcome (case): improvement in ability to read and sustain enjoyable conversation
[2]; person, 12.5 mg phenytoin added to sodium valproate 100 mg and dexamphetamine
  clinical outcome (case): Significant improvement in ability to maintain egocentric eye gaze and cognition
[2]; person, 50 mg phenytoin added to methylphenidate 120 mg per day
  clinical outcome (case): improved cognition with increased confidence in interpersonal relationships
[2]; person, phenytoin 20 mg per day added to sodium valproate and dexamphetamine
  clinical outcome (case): further improvement of the sequencing and organisation of thoughts
[2]; person, phenytoin 50 mg later 25 mg added to dexamphetamine and sodium valproate 200 mg
  clinical outcome (case): immediate improvement of stability of affect and clarity of thinking
[3]; phenytoin 25 mg added to dexamphetamine 25 mg, atomexetine 60 mg, sodium valproate 150 mg
  clinical outcome (case): improvement in coordination
[4]; infrared eye tracking
  fixations and saccadic eye movements after treatment: enhanced
[4]; person, ten-year Parkinson's disease
  clinical outcome (case): improved verbal fluency, enhanced and less effortful social connection and eye contact
[4]; person
  time to noted improvement: 2 to 3 days
[5]; [14]
  clinical outcome (case): remarkable improvement in their cognitive functioning
  rapid automatic naming and Alzheimer's Quick Test (AQT): significant improvement in their functioning
[5]; social withdrawal, phenytoin 12.5 mg daily
  clinical outcome (case): able to socially interact in a more meaningful way
[5]; phenytoin 10 mg added to low dose sodium valproate
  clinical outcome (case): more robust improvement on either medication alone
[5]; phenytoin 50 mg for two weeks
  clinical outcome (case): loss of the therapeutic benefit and general impairment
[5]; phenytoin increased to 25 mg, over 6 to 8 weeks
  clinical outcome (case): loss of the benefits
[6]
  clinical outcome (case): improved self organisation and ability to plan ahead without effort
[7]
  Minimum Dose/day effective for mood stabilisation or treatment of epileptic symptoms or events: 200 mg

## CCN(C)C(=O)Oc1cccc([C@H](C)N(C)C)c1 [Rivastigmine]
[1]
  effect in mild cognitive impairment (reports): failed to stop or slow progression to Alzheimer's disease or improve cognitive function

## CC1(C)O[C@@H]2[C@@H](CO[C@@]3(COS(N)(=O)=O)OC(C)(C)O[C@@H]23)O1 [Topiramate, 2,3:4,5-Bis-O-(1-methylethylidene)-beta-D-fructopyranose sulfamate]
[2]; dexamphetamine 30-80 mg/d with Topiramate 12.5-50 mg/d
  group outcome of combination therapy: successfully treated
[2]; median 40 mg/d Dexamphetamine, 120 mg/d Sodium Valproate, 25 mg/d Topiramate
  group outcome of combination therapy: successfully treated
[2]; methylphenidate 40-55 mg/d with Topiramate 12-37.5 mg/d
  group outcome of combination therapy: successfully treated
[2]; person, ADHD, 25 mg topiramate added to dexamphetamine 30 mg
  clinical outcome (case): ability to complete tasks, improvement in cognition
[2]; person, 25 mg topiramate added to oros extended release methylphenidate
  clinical outcome (case): improved organisation, cognition, enhanced interpersonal functioning, and ability to sustain egocentric eye gaze
[2]; person, topiramate 25 mg added to sodium valproate 300 mg and dexamphetamine 20 mg
  clinical outcome (case): Further improvements in interpersonal professional functioning
[8]
  clinical outcome (case): significant improvement
[7]; in vivo
  target dose for controlling epileptic seizures: 100 to 500 mg/day
[7]
  Minimum Dose/day effective for mood stabilisation or treatment of epileptic symptoms or events: 100 mg
[9]; 25 mg topiramate added to 45 mg extended release methylphenidate
  clinical outcome (case): improved organisation, enhanced interpersonal functioning, improved cognition and able to sustain egocentric eye gaze

## C[C@H](N)Cc1ccccc1 [dexamphetamine]
[10]
  stability and functional benefit (case): not noted
[11]
  use alone in treatment of amphetamine and cocaine addiction: unhelpful

## COC(=O)C(c1ccccc1)C1CCCCN1 (stereo not shown) [methylphenidate]
[2]; adult female, ADHD, anorexia nervosa bulimic subtype, methylphenidate alone
  clinical outcome (case): reasonable improvement
[2]; person 120 kg, ADHD, methylphenidate 120 mg per day alone
  clinical outcome (case): Remain disorganized and inconsistent with taking medication
[2]; person, ADHD, methylphenidate 55 mg
  clinical outcome (case): improvement in their symptoms of impaired attention and concentration
[2]; person, anorexia nervosa, ADHD, methylphenidate alone
  clinical outcome (case): inconsistent
[3]; autism, developmental dyspraxia, methylphenidate max 95 mg daily
  clinical outcome (case): Limited improvement with poor compliance
[12]
  effect on bulimic symptoms: suppression of bulimic symptoms
[13]
  duration of action: 2 to 4 h
[9]; anorexia nervosa, ADHD, methylphenidate, 45 mg extended release
  clinical outcome (case): inconsistent

Source: patent US10028971B2, “Compositions and methods for treating psychiatric disorders” (GOSFORTH CENTRE (HOLDINGS) PTY LTD., priority 2008, dated 2018)
